The source of these data is PMC11027154 (Journal of the American Chemical Society, 2024).

A short description of one data set: circular dichroism. The note with it: PBS, pH 7.4, 25 °C.
A short description of data set [1]: In vitro peptide stability in human serum. The conditions noted are these: 25% human serum, 37 °C; for degradation behaviour in serum: up to 48 h, LC-MS. The data set is classed as in vitro ADME. Here is the method:
The test compounds were separately incubated with 25% human serum at 37 °C; residual starting materials were monitored as a function of time, and degradation products were characterized using LC-MS (Figure 5c). […] Besides terminal degradation, we also observed ring-opening products by hydrolysis of amide bonds within the hydrocarbon macrocycles in two stapled peptides (Figures S28, S29).

A further data set concerns the target T1, cyclin A1 with a His tag (Homo sapiens, UniProt P78396).
T1 construct: His; purchased Sino Biological
The data set is described as follows: Direct fluorescence polarization (FP) binding to cyclin A1. The note with it: Figure 5b; FITC-labeled peptide, PBS, 3 h; read-out: FP assay for cyclin A: Kd^app.

Data set [2] is described as follows: 25 % human serum diluted in RPMI medium. The conditions noted are these: 37 °C, up to 48 hours (dual 0 – 72 hours in Figure S24).
Where [3] appears, read: residual starting material vs time, LC-MS/HPLC, 95% confidence interval in parentheses.

Bridge positions count the residues as written; N and C are the ends. Square brackets hold non-standard residues; d marks the D form. Peptide text beside a SMILES is read from it. * marks the point of attachment. X1 = C[C@@H]1NC(=O)[C@H](CC(=O)O)NC(=O)[C@@H](N)CSCc2cc3cc(c2)CSC[C@@H](C(=O)*)NC(=O)[C@H](CSC3)NC(=O)[C@H](CO)NC1=O; FITC = O=C1OC2(c3ccc(O)cc3Oc3cc(O)ccc32)c2ccc(NC(=S)*)cc21; S5 = C=CCCC[C@](C)(N)C(=O)O; βAla = NCCC(=O)O

T1 sequence (P78396 whole entry): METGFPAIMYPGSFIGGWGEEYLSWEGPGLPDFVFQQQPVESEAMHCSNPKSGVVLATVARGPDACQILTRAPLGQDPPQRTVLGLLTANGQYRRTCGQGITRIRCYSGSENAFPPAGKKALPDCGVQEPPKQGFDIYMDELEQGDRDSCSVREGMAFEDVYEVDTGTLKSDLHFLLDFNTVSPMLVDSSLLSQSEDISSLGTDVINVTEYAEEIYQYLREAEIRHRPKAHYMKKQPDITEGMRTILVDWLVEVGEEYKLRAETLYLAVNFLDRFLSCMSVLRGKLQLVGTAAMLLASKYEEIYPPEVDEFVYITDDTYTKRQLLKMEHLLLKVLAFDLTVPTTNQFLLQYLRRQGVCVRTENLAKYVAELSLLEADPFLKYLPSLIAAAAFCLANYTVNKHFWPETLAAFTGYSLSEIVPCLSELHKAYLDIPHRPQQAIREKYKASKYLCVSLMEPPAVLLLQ

For the compound `CC[C@H](C)[C@H](NC(=O)[C@@H]1CSCc2cc3cc(c2)CSC[C@H](N)C(=O)N[C@@H](CC(=O)O)C(=O)N[C@@H](C)C(=O)N[C@@H](CO)C(=O)N[C@@H](CSC3)C(=O)N1)C(=O)N[C@@H](CCCNC(=N)N)C(=O)N[C@@H](CCC(=O)O)C(=O)N[C@H](C(=O)N[C@@H](CO)C(=O)N[C@@H](CC(C)C)C(=O)N[C@@H](CC(C)C)C(=O)N[C@H]1CSCc2cc3cc(c2)CSC[C@H](NC(=O)[C@H](Cc2ccc(O)cc2)NC(=O)[C@H](CCC(=O)O)NC1=O)C(=O)NCC(=O)N[C@H](C(N)=O)CSC3)[C@@H](C)CC` [dual], in the data set “circular dichroism” (13 uM), the helicity was -11300 MRE222. Further, in data set [1], the “t1/2 relative to staple-2” value was more than 5.6 ×; the “t1/2 relative to the linear control” value is reported as more than 49 ×; the “degradation behaviour in serum” value is on record as “oxidation (sulfoxides, M^++16) but not proteolysis was observed”. Besides, the “half-life (h)” value in data set [1] (setting [3]) is 39.5 (>19.3) h.
In the case of `CC[C@H](C)[C@@H]1NC(=O)[C@H](C)NC(=O)[C@@](C)(NC(=O)[C@H](CO)NC(=O)[C@H](C)NC(C)=O)CCCC=CCCC[C@@](C)(C(=O)N[C@H](C(=O)N[C@@H](CO)C(=O)N[C@@H](CC(C)C)C(=O)N[C@@H](CC(C)C)C(=O)N[C@@H](CCCCN)C(=O)N[C@@H](CCC(=O)O)C(=O)N[C@@H](Cc2ccc(O)cc2)C(N)=O)[C@@H](C)CC)NC(=O)[C@H](CCCNC(=N)N)NC1=O` [staple-1] (Ac-AS[S5]AIR[S5]ISLLKEY-NH2; staple 3-7), the helicity in “circular dichroism” (17 uM) was -13200 MRE222. Also, the “degradation behaviour in serum” value in data set [1] is “overall higher stabilities”. The half-life in data set [1] (setting [3]) is 5.7 h.
For `CC[C@H](C)[C@@H]1NC(=O)[C@H](C)NC(=O)[C@@](C)(NC(=O)[C@H](CO)NC(=O)[C@H](C)NC(=O)CCNC(=O)CCNC(=O)CCNC(=S)Nc2ccc3c(c2)C(=O)OC32c3ccc(O)cc3Oc3cc(O)ccc32)CCCC=CCCC[C@@](C)(C(=O)N[C@H](C(=O)N[C@@H](CO)C(=O)N[C@@H](CC(C)C)C(=O)N[C@@H](CC(C)C)C(=O)N[C@@H](CCCCN)C(=O)N[C@@H](CCC(=O)O)C(=O)N[C@@H](Cc2ccc(O)cc2)C(N)=O)[C@@H](C)CC)NC(=O)[C@H](CCCNC(=N)N)NC1=O` [staple-1-f] ({FITC-βAla-βAla-βAla}-AS[S5]AIR[S5]ISLLKEY-NH2; staple 3-7), the Kd on cyclin A1 with a His tag was 1.47 ± 0.21 µM.
Consider CDASCCIREISLLCEYCGC, for which, in data set [2], the fragment found entry is listed as “sulfoxide dual; oxidized dual, 8h”.
Consider Ac-ASTAIREISLLKEY-NH2, for which the helicity in the data set “circular dichroism” (5-30 uM) was -3310 MRE222.
The compound `CC[C@H](C)[C@H](NC(=O)[C@H](C)NC(=O)[C@@H](NC(=O)[C@H](CO)NC(=O)[C@H](C)NC(C)=O)[C@@H](C)O)C(=O)N[C@@H](CCCNC(=N)N)C(=O)N[C@@]1(C)CCCC=CCCC[C@@](C)(C(=O)N[C@@H](CCCCN)C(=O)N[C@@H](CCC(=O)O)C(=O)N[C@@H](Cc2ccc(O)cc2)C(N)=O)NC(=O)[C@H](CC(C)C)NC(=O)[C@H](CO)NC(=O)[C@H]([C@@H](C)CC)NC1=O` [staple-2] (Ac-ASTAIR[S5]ISL[S5]KEY-NH2; staple 7-11) came in with a helicity in the data set “circular dichroism” (22 uM) of -11100 MRE222. Further, in data set [1], the “degradation behaviour in serum” value was “overall higher stabilities”. Moreover, the half-life in data set [1] (setting [3]) is 7 h.
`CC[C@H](C)[C@H](NC(=O)[C@H](C)NC(=O)[C@@H](NC(=O)[C@H](CO)NC(=O)[C@H](C)NC(C)=O)[C@@H](C)O)C(=O)N[C@@H](CCCNC(=N)N)C(=O)N[C@@H](CCC(=O)O)C(=O)N[C@H](C(=O)N[C@@H](CO)C(=O)N[C@@H](CC(C)C)C(=O)N[C@@H](CC(C)C)C(=O)N[C@H]1CSCc2cc3cc(c2)CSC[C@H](NC(=O)[C@H](Cc2ccc(O)cc2)NC(=O)[C@H](CCC(=O)O)NC1=O)C(=O)NCC(=O)N[C@H](C(N)=O)CSC3)[C@@H](C)CC` [BSM] yielded a helicity in “circular dichroism” (5-30 uM) of -5000 MRE222. For the same compound, the “degradation behaviour in serum” value in data set [1] is “hydrolyzed more slowly and formed stable byproducts”. For the same compound, the half-life in data set [1] (setting [3]) is 2.6 h.
CDASCCIREISLLKEY: in data set [2], the fragment found entry is “CDASCCIRE (BAMM bicycle with three residues), major”.
In the data set “circular dichroism” (5-30 uM), `CC[C@H](C)[C@H](NC(=O)[C@@H]1CSCc2cc3cc(c2)CSC[C@H](N)C(=O)N[C@@H](CC(=O)O)C(=O)N[C@@H](C)C(=O)N[C@@H](CO)C(=O)N[C@@H](CSC3)C(=O)N1)C(=O)N[C@@H](CCCNC(=N)N)C(=O)N[C@@H](CCC(=O)O)C(=O)N[C@H](C(=O)N[C@@H](CO)C(=O)N[C@@H](CC(C)C)C(=O)N[C@@H](CC(C)C)C(=O)N[C@@H](CCCCN)C(=O)N[C@@H](CCC(=O)O)C(=O)N[C@@H](Cc1ccc(O)cc1)C(N)=O)[C@@H](C)CC` [BAMM] (X1-IREISLLKEY-NH2) registered a helicity of -5590 MRE222. For the same compound, in data set [1], the “degradation behaviour in serum” value is “hydrolyzed more slowly and formed stable byproducts”. The half-life in data set [1] (setting [3]) was 2.1 h.
Regarding Ac-ASTAIREISLLCEYCGC, the fragment found entry in data set [2] is listed as “CEYCGC (BSM bicycle), major”.
